Laboratory results: patent US20260028390A1, “ALPHA1-ANTITRYPSIN FOR USE IN THE TREATMENT OF DISEASES OR DISORDERS OF THE NERVOUS SYSTEM SUCH AS CHRONIC INFLAMMATORY DEMYELINATING POLYNEUROPATHY” (Ageronix SA, priority 2022, published 2026)
Where “and” joins values, the source holds several entries; their conditions need not be identical. Equal values may be shown once.

Experiments:
HMC3-MHCII^Luc cells = experiment: IFNγ-mediated microglial activation, MHCII-driven luciferase activity; assay type: cell-based, human; settings: IFNγ 10 ng/ml; AATs 1, 10 or 25 μM day 0 to day 4
Experimental: • A) Human microglial cells HMC3-MHCII^Luc cells were plated at day 0, activated with IFNγ at day1 until day 2 and measurement of the luciferase activity and cell viability were done at day 4. • B) Activation was measured by the activity of MHCII-driven luciferase and normalized to cell viability. Luciferase activity for all conditions is represented as fold of the untreated control. A potential effect of the highest concentration of the buffer used for drug presentation (IFNγ, AATs) was precluded. All conditions were performed in triplicates, error bars represent standard deviation (FIGS. 1A and 1B).
(§1) • A) Human microglial HMC3-MHCII^Luc and HMC3MHCII^Luc; Ubi^AAT cells were plated at day 0, presented IFNγ at day 1 until day 2 and measurement of the luciferase activity and cell viability were done at day 4. • B) AATs were applied from day 0 to day 4 on HMC3-MHCII^Luc cells. Activation was measured by the activity of MHCII-driven luciferase and normalized to cell viability. […]
as §1, with “HMC3-MHCII^Luc” for “HMC3-MHCII^Luc and HMC3MHCII^Luc; Ubi^AAT”, “represented as percentage of IFNγ control for all conditions.” for “normalized to cell viability.”

[1] = Body weight, CMT1A mouse study (AAT 50 mg/kg sc twice daily); assay type: in vivo
Source text: As a murine model of CMT1A we used C3-PMP22 transgenic mice (B6.Cg-Tg(PMP22)C3Fbas/J, The Jackson Laboratory) which express three copies of a wild-type human peripheral myelin protein 22 (PMP22) gene (Verhamme, Camiel, et al. Journal of Neuropathology & Experimental Neurology 70.5 (2011): 386-398). Mice were housed in macrolon cages with filter hoods, in a continuously air-filtered room, thereby avoiding contamination. During experiments, paired animals were caged at a constant temperature with a day/night cycle of 12/12 hours. Animals were fed (control tap water and nutrition) ad libitum. Animal protocol is approved by the Animal Studies Committee of Languedoc Roussillon. This protocol and the laboratory procedures comply with French legislation, which implements the European Directives (Reference Number: D3417223, APAFIS #23920-2020020320279696 v3). Animal health was followed on a daily basis to ensure that only animals in good health enter the testing procedures and follow up the study.
Animals were split in 3 groups (wild-type control (subcutaneous 0.9% NaCl), CMT1A-vehicle (subcutaneous 0.9% NaCl), CMT1A-human alpha-1 antitrypsin (subcutaneous, twice daily, 50 mg/kg per injection)) of 3 mice each (3 weeks old males of 18±2.5 g at the beginning of study) and all went through the following protocol after 7 days of acclimation on site.

[2] = system: CMT1A mice B6.Cg-Tg(PMP22)C3Fbas/J; experiment: Sciatic nerve histology, CMT mice treated with AAT 180 mg/kg/day sc; assay type: in vivo, mouse
Source text: Animals were received at 6 weeks of age and housed under controlled conditions for the duration of the study. The study comprised two groups of 8 transgenic mice (CMT mice) each and one group of 8 age matched wild type (WT) C57B16 mice, serving as positive control. Animals were assigned to the following subcutaneous treatments twice daily at 7:00 AM and 7:00 PM for 2 weeks, starting from 8 weeks and up to 10 weeks of age: • Wild-type (WT, no disease) mice receiving vehicle, 0.9% NaCl (positive control) • CMT1A mice receiving vehicle, 0.9% NaCl (negative control) • CMT1A mice receiving AAT at 90 mg/kg per injection (daily dose 180 mg/kg)
The efficacy parameters included: • neuromuscular performance (rotarod latency to fall and grip strength test), • sciatic nerve electrophysiology (CMAP amplitude and NCV) • cytokine (IL-6 and TNFα), as well as NfL analysis • sciatic nerve histology (number of axons and axonal diameter),

[3] = CMT1A + AAT 90 mg/kg sc twice daily
[4] = CMT mice, AAT 180 mg/kg daily dose
[5] = after 2 weeks treatment free period

For alpha1-antitrypsin (AAT) protein, the “IFNγ-mediated microglial activation (MHCII-driven luciferase activity)” value (HMC3-MHCII^Luc cells) was “decreases”, the “Body weight, MEAN” value ([1]; CMT1A + hAAT, 3rd column, head prints 6 weeks old, in g (unit assumed)) was 19.73 and the “Body weight, individual mice” value ([1]; CMT1A + hAAT, 3rd column, head prints 6 weeks old, listed as hAAT, in g (unit assumed)) was 19.6 and 20.5 and 19.1. For the same substance, the “body weight loss in the AAT treated group compared to the vehicle group” value ([1]; CMT1A mice, 50 mg/kg sc twice daily, two weeks) was “no observable body weight loss”, the “Sciatic nerve histology, Axonal diameter (Mean ± SD)” value [2, 3] was 3.84 ± 0.25 μm and the “Sciatic nerve histology, Axons/100 μm2 (Mean ± SD)” value [2, 3] was 26.30 ± 2.00. For the same substance, the “Sciatic nerve histology, g-ratio (Mean ± SD)” value [2, 3] was 0.62 ± 0.16, the “axonal diameter relative to untreated CMT animals” value [2, 4] was “increase” and the “g-ratio relative to untreated CMT animals” value [2, 4] was “decrease”. For the same substance, the “number of axons in the treated animals” value [2, 5] was “significantly larger” and the “size of the myelin sheath in the treated animals” value [2, 5] was “significantly larger”.
